This note sets out measurements from patent US9840470B2, “Targeting GLI proteins in human cancer by small molecules” (The Regents of the University of California, priority 2013, dated 2017).

This assay deals with melanoma MelJuso. As to the kind of experiment: In vivo efficacy, mouse xenograft model (melanoma MelJuso). The method, then:
The administered compounds were tested in vivo in the mouse xenograft model bearing human cancer cells. Briefly, female athymic nude mice strain NCRNU-M (5-10 weeks old, 20-25 grams in weight; Taconic, Germantown, N.Y.) was maintained in pathogen-free conditions. Three human cancer cell lines: NSCLC A549, melanoma MelJuso, and mesothelioma MS-1 were used. Five or ten mice were used in each group and injected s.c. with 3×10^6 cancer cells in the dorsal area in a volume of 100 μl. After inoculation, human cancer cells were allowed to grow in mice for 10-13 days to become visible tumor nodules. Animals were then injected with a compound of the embodiments at a dose of 50 mg/kg body weight (1 mg/mouse per day). Vehicle alone was used as control. The compounds and controls were adjusted in 40 ul volume for i.p. injection in the abdomens of the mice. Injections were performed daily around the same time for 14 days. Tumors were allowed to grow for 1-2 additional weeks after completion of the compound treatments. Tumor size was measured every three to four days, and tumor volumes were calculated using width (x) and length (y) (x^2y/2, where x<y). Throughout this period, general toxicity of the treatments was also monitored by measuring body weight of the mice. Data was presented as mean values (±S.D.).
In vivo efficacy study of Compounds 1, 2, 4, and 6 were performed using a Mouse Xenograft Model (Melanoma MelJuso). Mice were injected s.c. with 3×10^6 cells in the dorsal area in a volume of 100 μl. 13 days after inoculation, the mice started receiving treatments with the administered compound at a dose of 50 mg/kg body weight daily for 14 days (n=10). Vehicle alone was used as control (n=10). The administered compounds and vehicle were adjusted in a volume of 40 μl for i.p. injection in the abdomens of the mice. Tumor size and tumor volumes were calculated as described above.

In the case of `CCCC1C(C(=O)NCCCC(C)(C)CO)C(c2ccc(F)cc2)=NN1c1ccccc1` (centres unmarked) [Compound 4, 3-(4-fluoro-phenyl)-1-phenyl-5-propyl-4,5-dihydro-1H-pyrazole-4-carboxylic acid (5-hydroxy-4,4-dimethyl-pentyl)-amide], the tumor growth entry (50 mg/kg body weight i.p. daily for 14 days, from 13 days after inoculation) is given as “dramatically suppressed”. The “tumor weight (FIG. 1)” value (melanoma MelJuso xenograft, after treatment) is reported as “significantly decreased”.
